The source of these data is ChEMBL document CHEMBL1201862, “PubChem BioAssay data set” (2004).

Some test systems named below: SN12C; 786-0; RPMI-8226; SF-268; ACHN; OVCAR-3; OVCAR-5; CAKI-1; HOP-62; COLO 205; LOX IMVI; NCI-H226; A549; SF-295; OVCAR-4; SW-620; RXF 393; A498; MOLT-4.
Holding throughout (experiment): inhibition of tumour cell growth, NCI panel, 48 h

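These data come from cells grown in 96-well plates and exposed to compound for 48 hours at five concentrations. Abbreviation: GI50, concentration required for 50% inhibition of growth.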 Calls of active or inactive are those of the source. No stated cut-off is given here; in the data, active = GI50 up to about 1.1 µM and inactive = higher. Bounds are passed on as bounds.

For the compound `Nc1nc(Cl)cc(NCCCCCCCCCCNc2cc(Cl)nc(N)n2)n1`, the GI50 with SN12C is 71.9 µM (inactive); in the experiment on 786-0, 21.5 µM (inactive); with RPMI-8226 it was 2.18 µM (inactive); with SF-268, 3.26 µM (inactive); in the experiment on ACHN it was < 0.01 µM (active); with OVCAR-3, 1.82 µM (inactive). The GI50 with OVCAR-5 was 0.043 µM (active); in the experiment with CAKI-1, 25.6 µM (inactive); in the experiment on HOP-62, 22 µM (inactive); with COLO 205, 24.9 µM (inactive); with LOX IMVI it was 1.56 µM (inactive); in the experiment on NCI-H226, 1.99 µM (inactive). The GI50 in the experiment with A549 is 3.21 µM (inactive); in the experiment with SF-295, 0.301 µM (active); in the experiment on OVCAR-4, 8.13 µM (inactive); in the experiment with SW-620 it was 35.6 µM (inactive); with RXF 393 it was 13.9 µM (inactive).
Regarding `COC(=O)C(C)Oc1ccc(O)cc1` (stereo not drawn), the GI50 was > 100 µM (inactive) in the experiment with SN12C; > 100 µM (inactive) in the experiment with 786-0; > 100 µM (inactive) in the experiment with RPMI-8226; 20.6 µM (inactive) in the experiment with SF-268; > 100 µM (inactive) in the experiment with ACHN; > 100 µM (inactive) in the experiment on OVCAR-3. Also, the GI50 with OVCAR-5, in the experiment on CAKI-1, in the experiment with HOP-62, in the experiment on A498, in the experiment with COLO 205 and with NCI-H226 was > 100 µM (inactive) throughout. Also, the GI50 in the experiment on A549 is 63 µM (inactive); with SF-295 it was > 100 µM (inactive); with OVCAR-4, > 100 µM (inactive); in the experiment on SW-620, 34.9 µM (inactive).
Regarding `CN(C)CC(/C(Cc1ccccc1)=N\NC(=O)c1ccncc1)c1ccccc1` (stereo not drawn), the GI50 in the experiment on SN12C was 46.2 µM (inactive); in the experiment on 786-0, 30 µM (inactive); in the experiment with RPMI-8226, 16.4 µM (inactive); in the experiment with SF-268 it was 33.4 µM (inactive); in the experiment with ACHN, 27.5 µM (inactive); with OVCAR-3, 20.1 µM (inactive). Besides, the GI50 was 83.8 µM (inactive) in the experiment with OVCAR-5; 44.3 µM (inactive) in the experiment on CAKI-1; 33.8 µM (inactive) in the experiment on HOP-62; 30.8 µM (inactive) in the experiment on COLO 205; 30.2 µM (inactive) in the experiment with LOX IMVI; 71.6 µM (inactive) in the experiment on NCI-H226. The GI50 was 30.3 µM (inactive) in the experiment on A549; 17.4 µM (inactive) with SF-295; 36.7 µM (inactive) with OVCAR-4; 35.8 µM (inactive) with SW-620; 28.7 µM (inactive) in the experiment with RXF 393.
Take `CC(C)COC(=O)c1ccc(/N=C\c2ccc(/C=N/c3ccc(C(=O)OCC(C)C)cc3)cc2)cc1`: the GI50 in the experiment on SN12C, in the experiment with 786-0, with RPMI-8226, in the experiment on SF-268, in the experiment on ACHN and in the experiment on OVCAR-3 was > 100 µM (inactive) in each case. The GI50 in the experiment with OVCAR-5, in the experiment on CAKI-1, with HOP-62, in the experiment on COLO 205, in the experiment with MOLT-4 and with LOX IMVI was > 100 µM (inactive) in each case. In addition, the GI50 with NCI-H226, in the experiment with A549, in the experiment on SF-295, with OVCAR-4 and in the experiment with SW-620 was > 100 µM (inactive) each time.
With `Nc1ccc(C23CC4CC(C2)CC(c2ccc(N)cc2)(C4)C3)cc1`, the GI50 in the experiment with SN12C was 25.1 µM (inactive); in the experiment with 786-0, 38.5 µM (inactive); in the experiment on RPMI-8226, 10.7 µM (inactive); in the experiment on SF-268, 45.2 µM (inactive); in the experiment with ACHN it was 41.1 µM (inactive); in the experiment with OVCAR-3, 48.5 µM (inactive). For the same compound, the GI50 is 27.7 µM (inactive) with OVCAR-5; > 100 µM (inactive) in the experiment on CAKI-1; 60 µM (inactive) with HOP-62; 15.7 µM (inactive) in the experiment on A498; 2.3 µM (inactive) in the experiment on COLO 205; 11.3 µM (inactive) with MOLT-4. In addition, the GI50 in the experiment with LOX IMVI was > 100 µM (inactive); in the experiment on NCI-H226, 11.5 µM (inactive); with A549, > 100 µM (inactive); in the experiment on OVCAR-4, 10.2 µM (inactive); with SW-620, 3.14 µM (inactive).
On to `COc1cc(/C=C(\NC(=O)c2ccccc2)c2nc3cncnc3[nH]2)cc(OC)c1OC`, for which the GI50 in the experiment on SN12C, in the experiment on 786-0, in the experiment on SF-268, in the experiment on ACHN, in the experiment with OVCAR-3 and with OVCAR-5 was > 100 µM (inactive) each time. The GI50 in the experiment on CAKI-1, with COLO 205, in the experiment with MOLT-4, in the experiment on A549, with SF-295 and in the experiment with OVCAR-4 was > 100 µM (inactive) throughout. Also, the GI50 with SW-620 and with RXF 393 was > 100 µM (inactive) throughout.
Consider `Cc1ccc(/C=C2\NC(=S)N(CN3CCOCC3)C2=O)cc1`, for which the GI50 with SN12C, in the experiment with 786-0, in the experiment with RPMI-8226, in the experiment with SF-268, in the experiment with ACHN and in the experiment on OVCAR-3 was > 100 µM (inactive) throughout. Further, the GI50 in the experiment with OVCAR-5, with HOP-62, with A498, in the experiment on COLO 205, in the experiment on MOLT-4 and in the experiment on LOX IMVI was > 100 µM (inactive) each time. The GI50 in the experiment on NCI-H226, in the experiment with A549, with SF-295, in the experiment with OVCAR-4 and in the experiment with SW-620 was > 100 µM (inactive) each time.
Consider `Cc1ccc2nc(NC(=O)C(=O)C(C#N)c3ccc(Cl)cc3)sc2c1` (stereo not drawn), for which the GI50 with SN12C, with 786-0, with RPMI-8226, with SF-268, in the experiment with ACHN and in the experiment with OVCAR-3 was > 50 µM (inactive) in each case. Also, the GI50 with OVCAR-5, in the experiment on CAKI-1, with HOP-62, with COLO 205, with LOX IMVI and with NCI-H226 was > 50 µM (inactive) in each case. Further, the GI50 with A549, in the experiment with SF-295, with OVCAR-4, in the experiment on SW-620 and in the experiment with RXF 393 was > 50 µM (inactive) each time.
As to `CC(=O)OCC(=O)[C@@]1(O)CC[C@H]2[C@@H]3C[C@H](C)C4=CC(=O)C=C[C@]4(C)[C@@]3(F)[C@@H](O)C[C@@]21C`, the GI50 in the experiment with 786-0 is > 100 µM (inactive); in the experiment with RPMI-8226, 23.7 µM (inactive); in the experiment with SF-268 it was > 100 µM (inactive); in the experiment with ACHN, > 100 µM (inactive); in the experiment with OVCAR-3, > 100 µM (inactive); with OVCAR-5, 12.9 µM (inactive). In addition, the GI50 in the experiment with CAKI-1 is > 100 µM (inactive); in the experiment with HOP-62, > 100 µM (inactive); in the experiment on COLO 205 it was > 100 µM (inactive); in the experiment with MOLT-4, 68.7 µM (inactive); in the experiment on LOX IMVI, > 100 µM (inactive); with NCI-H226, 32.5 µM (inactive). Moreover, the GI50 in the experiment with A549, in the experiment with SF-295, in the experiment with OVCAR-4, in the experiment on SW-620 and in the experiment with RXF 393 was > 100 µM (inactive) each time.
As for `C/C(=N\NS(=O)(=O)c1ccc(C)cc1)c1ccc[n+]([O-])n1`, the GI50 is > 100 µM (inactive) in the experiment on SN12C; > 100 µM (inactive) in the experiment with 786-0; 36.8 µM (inactive) in the experiment with RPMI-8226; > 100 µM (inactive) in the experiment on SF-268; > 100 µM (inactive) with ACHN; 39.5 µM (inactive) with OVCAR-3. For the same compound, the GI50 with OVCAR-5 is > 100 µM (inactive); in the experiment on CAKI-1, 25.1 µM (inactive); in the experiment on HOP-62 it was > 100 µM (inactive); in the experiment with A498 it was > 100 µM (inactive); in the experiment with MOLT-4, 56.9 µM (inactive); in the experiment on A549 it was > 100 µM (inactive). Further, the figures for the GI50 in the experiment with SF-295, in the experiment on OVCAR-4 and with SW-620 were > 100 µM (inactive), > 100 µM (inactive) and 32.1 µM (inactive), respectively.
Regarding `O=[N+]([O-])c1cccc2c(/N=N/c3ccc4ccccc4c3O)c(O)cc(S(=O)(=O)O)c12`, the GI50 with SN12C is 64.7 µM (inactive); with 786-0, 17.8 µM (inactive); with RPMI-8226, > 100 µM (inactive); with SF-268, 23.6 µM (inactive); with ACHN it was 22.5 µM (inactive); in the experiment with OVCAR-3, 3.47 µM (inactive). Also, the GI50 is 34.8 µM (inactive) in the experiment with OVCAR-5; 2 µM (inactive) in the experiment on CAKI-1; 18.2 µM (inactive) with HOP-62; 5.21 µM (inactive) in the experiment with MOLT-4; 6.18 µM (inactive) in the experiment with LOX IMVI; 22.6 µM (inactive) in the experiment on NCI-H226. Further, the GI50 is 32.7 µM (inactive) in the experiment with A549; 20.9 µM (inactive) in the experiment with SF-295; 57.9 µM (inactive) in the experiment on OVCAR-4; 31.6 µM (inactive) in the experiment with SW-620; 38.4 µM (inactive) in the experiment on RXF 393.
Turning to `C[C@@]1(Cc2ccccc2)C(=O)N2[C@@H](CO)C(c3ccccc3)O[C@]2(C)c2ccccc21` (stereo partly drawn), the GI50 was 52.7 µM (inactive) in the experiment with 786-0; 76 µM (inactive) in the experiment with RPMI-8226; > 100 µM (inactive) in the experiment with SF-268; > 100 µM (inactive) in the experiment on ACHN; > 100 µM (inactive) with OVCAR-3; > 100 µM (inactive) in the experiment on OVCAR-5. Besides, the GI50 in the experiment on CAKI-1 is 26.2 µM (inactive); with HOP-62, > 100 µM (inactive); with COLO 205, > 100 µM (inactive); with MOLT-4 it was 32.3 µM (inactive); with LOX IMVI, > 100 µM (inactive); in the experiment on NCI-H226 it was > 100 µM (inactive). Moreover, the GI50 is > 100 µM (inactive) in the experiment with A549; 72.4 µM (inactive) in the experiment with SF-295; > 100 µM (inactive) in the experiment with OVCAR-4; 91.6 µM (inactive) with SW-620; > 100 µM (inactive) in the experiment with RXF 393.
